{"source": "patent US9458122B2", "about": "“Process for purifying crude furan 2,5-dicarboxylic acid using hydrogenation” (Eastman Chemical Company, priority 2012, dated 2016)", "experiment": "solubility of FDCA in water at different temperatures", "type": "physicochemical", "conditions": "ambient pressure, as water temperature increases beyond 130° C. (FIG. 2)", "description": "FIG. 2 depicts the solubility of FDCA in water at different temperatures.\nSuitable dissolution temperatures are those effective to dissolve the desired amount of FDCA solids into solution. The hydrogenation solvent composition may be added at (by pre-heating) or heated in the dissolution zone to a temperature of at least 120° C. under a pressure and time sufficient to allow for at least 80 wt. % dissolution, although to reduce the time required for dissolution, it is desirable that the hydrogenation solvent composition temperature is at least 130° C., or at least 135° C., or at least 140° C., or at least 150° C."}
{"smiles": "O=C(O)c1ccc(C(=O)O)o1", "note": "[FDCA, Furan 2,5-dicarboxylic acid]", "values": [{"measurement": "solubility of FDCA in water", "result": "increases dramatically"}]}
